“Also recorded” adds a separate entry of the source. Where two headings read alike, the source gives them in different places. Marks after values point to notes of the source that are not given here.

Consider twelve molecules from patent US11504320B2, “Use of naturally glycosylated polyphenols as protective agents against the effects of ultraviolet irradiation” (MEDENA AG, priority 2017, dated 2022).

Data set [1] is described as follows: Broad band UVB and UVA absorption (SPF and UVA/UVB ratio) of sunscreens. It counts as physicochemical. Conditions: for SPF1 (sun protection factor corresponding to UVB absorption): 250 μM sunscreen; for SPF2 (sun protection factor corresponding to UVB absorption): 10% (weight %) sunscreen. The protocol:
For the invention as claimed data are presented in support of the surprising finding that definite naturally glycosylated polyphenols provide optimal photo-protection due to several reasons. They effectively absorb broad-band range of UV light in both spectrum regions: UVA and UVB. […] The efficacy of absorption is expressed as SPF (sun protection factor) for UVB range representing an integral of absorption within the whole UVB spectrum. The efficacy of absorption is also calculated as the UVA/UVB ratio showing that the ratio should be greater than 0.5 up to 1.2 in order to provide proper UVA protection.

Data set [2] in a line: Photo stability: effect of solar simulating UV irradiation on SPF values of sunscreens. Type of data set: physicochemical. Conditions: for SPF after UV irradiation: fifty μM solution. The protocol:
Fifty μM sunscreen solutions placed in 3.5 cm Petri dishes were irradiated by 66% UVA+33% UVB for 1, 3, 20, and 40 min. Final doses of UV irradiation were 0.15, 0.45, 3.0, and 6.0 J/cm^2, respectively. * p<0.05 vs background SPF; ** p<0.01 vs background SPF.

For a further data set, the system named is skin cells. Nature of the data set: Photo-chemo-toxicity (photo-chemo damage to skin cells). It counts as cell-based. The source says:
This is true for quercetin and its alpha-glycosylated derivative, resveratrol, chalcone and many others. The phenomenon of photo-chemo-toxicity depends of UV-induced destruction of the parent molecule and cytotoxicity exerted by the formed metabolites.

[3] abbreviates: UV (66% UVA + 33% UVB) 0 J/cm^2.
[4] abbreviates: UV (66% UVA + 33% UVB) 0.15 J/cm^2 (1 min).
The mark [5] stands for this setting: UV (66% UVA + 33% UVB) 0.45 J/cm^2 (3 min).
The mark [6] stands for this setting: UV (66% UVA + 33% UVB) 3.0 J/cm^2 (20 min).
The mark [7] stands for this setting: UV (66% UVA + 33% UVB) 6.0 J/cm^2 (40 min).
[8] abbreviates: solar simulated UVB+UVA irradiation.

As for `O=c1cc(-c2ccccc2)oc2cc(O)c(O)c(O)c12` [Baicalein], in data set [1], the “UVA/UVB (ratio of UVA to UVB absorption)” value is given as 1.14. Also, the “SPF1 (sun protection factor corresponding to UVB absorption)” value (from here on “SPF1”) in data set [1] is 3.65 ± 0.12. In data set [1], the “SPF2 (sun protection factor corresponding to UVB absorption)” value (shortened to “SPF2”) worked out at 5.41 ± 0.12. Moreover, the “SPF after UV irradiation” value in data set [2] (setting [3]) is recorded as 3.68 ± 0.15; in data set [2] (setting [4]), 3.63 ± 0.12; in data set [2] (setting [5]) it was 3.62 ± 0.13; in data set [2] (setting [6]), 3.69 ± 0.12; in data set [2] (setting [7]), 3.79 ± 0.12. For the same molecule, the “Photo-stability on exposure to UV irradiation (in words)” value (“Photo-stability on exposure” below) in data set [2] (setting [8]) is “easily destructed”.

As to `O=C(/C=C/c1ccccc1)c1ccccc1` [Ghalcone], the “Photo-chemo-toxicity (in words)” value with skin cells (skin cells, UV) is “photo-chemo-toxicity”.

On to `O=c1c(O)c(-c2ccc(O)cc2O)oc2cc(O)cc(O)c12` [Morin], for which, in data set [1], the “UVA/UVB (ratio of UVA to UVB absorption)” value is listed as 1.70, the “SPF1” value is 2.63 ± 0.08 and the “SPF2” value came out at 3.48 ± 0.12.

Turning to `O=c1c(O)c(-c2ccc(O)c(O)c2)oc2cc(O)cc(O)c12` [Quercetin], the “Photo-stability on exposure” value was “photo-unstable” in data set [2] (setting [8]) and “unstable to exposure to UV irradiation; also recorded: easily destructed” in data set [2] (solar simulated UVB+UVA irradiation, listed as quercetin). In the data set with skin cells, the “Photo-chemo-toxicity (in words)” value is on record as “photo-chemo-toxicity”.

For the molecule `Oc1ccc(C=Cc2cc(O)cc(O)c2)cc1` [Resveratrol], the “SPF after UV irradiation” value was 11.98 ± 0.11 in data set [2] (setting [3]); 4.81 ± 0.20** in data set [2] (setting [4]); 4.25 ± 0.20 in data set [2] (setting [5]); 4.93 ± 0.16 in data set [2] (setting [6]); 4.63 ± 0.10 in data set [2] (setting [7]). In addition, the “Photo-stability on exposure” value in data set [2] (setting [8]) is “unstable to exposure to UV irradiation; also recorded: easily destructed”. Further, in the data set on skin cells, the “Photo-chemo-toxicity (in words)” value is “photo-chemo-toxicity”.

Regarding `O=C1c2c(O)cc(O)cc2O[C@H](c2ccc(O)c(O)c2)[C@H]1O` [Taxifolin], in data set [1], the “UVA/UVB (ratio of UVA to UVB absorption)” value is 0.46, the “SPF1” value came to 6.38 ± 0.12 and the “SPF2” value is recorded as 8.39 ± 0.14. Further, the “SPF after UV irradiation” value in data set [2] (setting [3]) is given as 6.38 ± 0.12. In addition, in data set [2] (setting [6]), the “SPF after UV irradiation” value is given as 6.38 ± 0.12. The “SPF after UV irradiation” value in data set [2] (setting [7]) was 6.39 ± 0.12.

Consider `C[C@@H]1O[C@@H](O[C@@H]2[C@@H](O)[C@H](OCCc3ccc(O)c(O)c3)O[C@H](CO)[C@H]2OC(=O)/C=C/c2ccc(O)c(O)c2)[C@H](O)[C@H](O)[C@H]1O` [Verbascoside], for which, in data set [1], the “UVA/UVB (ratio of UVA to UVB absorption)” value came out at 0.59, the “SPF1” value stood at 8.25 ± 0.09 and the “SPF2” value was determined as 5.29 ± 0.09. In addition, the “SPF after UV irradiation” value in data set [2] (setting [3]) is listed as 8.25 ± 0.09. In data set [2] (setting [6]), the “SPF after UV irradiation” value was 8.23 ± 0.12. For the same molecule, the “SPF after UV irradiation” value in data set [2] (setting [7]) is recorded as 8.26 ± 0.10.

Turning to `O=c1c(O)c(-c2ccc(O)cc2)oc2cc(O)cc(O)c12` [kaempferol], the “Photo-stability on exposure” value in data set [2] (setting [8]) is listed as “unstable to exposure to UV irradiation”; in data set [2] (solar simulated UVB+UVA irradiation, listed as kaempherol), “easily destructed”.

For `O=c1c(O)c(-c2cc(O)c(O)c(O)c2)oc2cc(O)cc(O)c12` [myricetin], the “Photo-stability on exposure” value in data set [2] (setting [8]) was “easily destructed”.

On to `COc1cc(/C=C/C(=O)O)ccc1O` [trans-Ferulic acid], for which the “SPF after UV irradiation” value in data set [2] (setting [3]) was 7.34 ± 0.18; in data set [2] (setting [4]) it was 5.34 ± 0.09**; in data set [2] (setting [5]) it was 3.91 ± 0.11; in data set [2] (setting [6]), 3.61 ± 0.13; in data set [2] (setting [7]), 3.74 ± 0.17.

For the molecule Leontopodic acids, in data set [1], the “UVA/UVB (ratio of UVA to UVB absorption)” value stood at 0.51, the “SPF1” value was 11.83 ± 0.12 and the “SPF2” value is reported as 6.79 ± 0.12.

In the case of “alpha-glycosyl quercetin [alpha-glycosylated derivative]”, the “Photo-stability on exposure” value in data set [2] is “photo-unstable”. Moreover, the “Photo-chemo-toxicity (in words)” value with skin cells was “photo-chemo-toxicity”.
